The test system of one assay is Versican. The experiment in a line: Real-time PCR gene expression in dermal papilla cells: versican. The assay is classed as cell-based, human. The conditions noted are these: for Expression of Genes (%): Versican: non-treated group = 100; for expression of versican, result in words: summary of Table 10. The source says: (§1) In general, it is known that VEGF, IGF-1, FGF, or the like, secreted in dermal papilla cells induce an anagen stage of hair. In addition, versican is known as a marker of an anagen stage of hair and DKK-1 is known as a marker of a catagen stage of hair. Therefore, effects of rhaponticin, rhein, chrysophanol and physicon-O-d-glucopyranoside upon the signals of accelerating an anagen stage and those of inducing a catagen stage in dermal papilla cells were examined according to the present disclosure. In a 6-well culture plate, dermal papilla cells were seeded to each well at 1×10^5 and treated with 10 μg/mL of each of the samples of rhaponticin, rhein, chrysophanol, physicon-O-d-glucopyranoside and combinations thereof as shown in the following Table 10. Then, real-time PCR was used to determine expression of each of VEGF, versican and DKK-1 by using Taqman® probe (Thermo Fisher, Massachusetts, USA) as shown in the following Table 9. [table]
In general terms: In qPCR the cycle at which signal appears reflects the starting amount.

The subject of assay [1] is Human-derived dermal papilla cells (DPCs). The experiment in a line: Dermal papilla cell proliferation, CCK-8 (Experimental Example 6). The assay is classed as cell-based. Conditions: for Dermal Papilla Cell Proliferation Ability (%): one day, control = 100; for proliferation of dermal papilla cells, result in words: summary of Table 8. The protocol: Human-derived dermal papilla cells (DPCs) were purchased from PromoCell GmbH. The DPCs were cultured in a DMEM medium (Hyclone Inc., Utah, USA) containing 5% of fetal bovine serum (FBS; Gibco, NY, USA), 10 units/mL of penicillin and 100 μg/mL of streptomycin at 37° C. under 5% of CO2. The cultured DPCs were pipetted to a 96-well plate at 3,000 cells/well and cultured under the condition of 0.1% of serum for 24 hours. Then, the cultured cells were treated with 10 μg/mL of each of the samples of rhaponticin, rhein, chrysophanol, physicon-8-O-glucopyranoside and combinations thereof as shown in the following Table 8 for one day and then incubated, and DMSO (vehicle) diluted to 1:1000 in serum-free DMEM was used as a control and 2 μg/mL of minoxidil was used as a positive control . After incubation, a cell counting kit (CCK) was used to evaluate proliferation of cells. The culture medium was treated with CCK-8 at a ratio of 1:10, followed by incubation for 1 hour. After 1 hour, the absorbance of each well was determined at 450 nm. All tests were repeated three times and the average of absorbance value was calculated. The results are shown by the percentage of a test group as the result of the control is taken as 100.

The next assay deals with VEGF. The experiment in a line: Real-time PCR gene expression in dermal papilla cells: VEGF. The assay is classed as cell-based, human. The conditions noted are these: for Expression of Genes (%): VEGF: non-treated group = 100; for expression of VEGF, result in words: summary of Table 10.
From the text: as §1

Another assay relates to DKK-1. The experiment in a line: Real-time PCR gene expression in dermal papilla cells: DKK-1. The assay is classed as cell-based, human. The conditions noted are these: for Expression of Genes (%): DKK-1: non-treated group = 100; for expression of DKK-1, result in words: summary of Table 10.
From the text: as §1

Assay [2] relates to Wnt/β-catenin promoter activity (Wnt reporter HEK293SA cells). The experiment in a line: Wnt/β-catenin promoter luciferase reporter analysis. The conditions noted are these: escin 5, 10 and 20 μg/mL, FIG. 1. In kind it is cell-based. The protocol: In general, Wnt/β-catenin signals activated in dermal papilla cells are generated while a transition from a […] to an anagen stage occurs in the hair growth cycle, i.e. during a period from beginning of hair growth to an activation stage of hair growth. In addition, in a telogen stage and catagen stage, Wnt/β-catenin signals become weak or disappear to cause degradation of hair follicles and depilation. In this Experimental Example, it is determined how escin contributes to amplification of Wnt/β-catenin signals.
As a positive control which amplifies Wnt/β-catenin signals, wnt3a protein was used. In addition, dimethyl sulfoxide (DMSO) was used as a negative control. In a 96-well culture plate, approximately 3×10^4 of Wnt reporter HEK293SA cells were seeded to each well and treatment with escin was carried out at a concentration of 5 μg/mL, 10 μg/mL and 20 μg/mL. Then, a luciferase assay kit (E1960) available from Promega Corp. was used to carry out reporter analysis according to the test method provided by the company. In addition, luminometer Victor (Perkin Elmer, Waltham, Mass., USA) was used to determine Wnt/β-catenin promoter activity.

A further assay relates to β-catenin. The experiment in a line: Expression of β-catenin in dermal papilla cells (SDS-PAGE / anti-β-catenin antibody). The assay is classed as cell-based, human. The conditions noted are these: escin 0.2-5 μg/mL, 1 day; GAPDH control; FIG. 2. The source says: In dermal papilla cells in a catagen stage and a telogen stage, during which Wnt signals are inhibited, β-catenin is decomposed by GSK3-beta. However, in dermal papilla cells in an anagen stage, during which Wnt signals are amplified, activity of GSK3-beta is inhibited and β-catenin is not decomposed, resulting in an increase in expression of β-catenin. Human dermal papilla cells were pipetted to six well plates at about 500,000 cells/well, and treated with escin for 1 day at a concentration of 0.2, 0.5, 1.2 and 5 μg/mL, followed by incubation. After incubation, M-PER lysis buffer was used to cause lysis of the cells and the same amount of cell lysate was loaded on SDS-PAGE gel. The cell lysate loaded on SDS-PAGE gel was transferred to a nitrocellulose membrane and anti-β-catenin antibody was attached to the nitrocellulose membrane to detect protein. GAPDH was used as a control for correcting protein content. The amount of β-catenin increased by escin was determined.

In assay [3] the test system is Human-derived dermal papilla cells (DPCs). The experiment in a line: Dermal papilla cell proliferation, CCK-8 (Experimental Example 2, escin). Conditions: one day; for Dermal Papilla Cell Proliferation Ability (%): control = 100. The assay is classed as cell-based. The protocol:
Human-derived dermal papilla cells (DPCs) were purchased from PromoCell GmbH. DPCs were cultured under the conditions of 37° C. and 5% CO2 by using a follicle dermal papilla cell growth medium and supplement mix recommended by PromoCell GmbH. The cultured DPCs were pipetted to a 96-well plate at 3,000 cells/well and cultured for 24 hours in the presence of 0.1% of blood serum. Then, the cultured cells were treated with escin at a concentration of 0.2, 0.5, 1.2 and 5 μg/mL for one day and then incubated, and DMSO (vehicle) diluted to 1:1000 in serum-free DMEM was used as a control. After incubation, a cell counting kit (CCK) was used to evaluate proliferation of cells. The culture medium was treated with CCK-8 at a ratio of 1:10, followed by incubation for 1 hour. After 1 hour, the absorbance of each well was determined at 450 nm. All tests were repeated three times and the average of absorbance value was calculated. The results are shown by the percentage of a test group with the result of the control taken as 100.

`Cc1cc(O)c2c(c1)C(=O)c1cccc(O)c1C2=O` [Chrysophanol]: in the assay on Versican (10 μg/mL), the “Expression of Genes (%): Versican” value stood at 158%. Besides, the “expression of versican, result in words” value in the assay with Versican is reported as “increase expression”. The “Dermal Papilla Cell Proliferation Ability (%)” value in assay [1] (10 μg/mL) was found to be 152.0%. The “proliferation of dermal papilla cells, result in words” value (“proliferation of dermal papilla cells” below) in assay [1] is reported as “excellent effect of accelerating proliferation of dermal papilla cells”. Moreover, the “Expression of Genes (%): VEGF” value in the assay on VEGF (10 μg/mL) came to 250%. For the same compound, the “expression of VEGF, result in words” value in the assay with VEGF is “increase expression of VEGF”. In the assay on DKK-1 (10 μg/mL), the “Expression of Genes (%): DKK-1” value is 123%. Also, the “expression of DKK-1, result in words” value in the assay with DKK-1 is reported as “reduce expression of DKK-1”.

Consider `Nc1cc(N2CCCCC2)nc(N)[n+]1[O-]` [Minoxidil, 2,4-diamino-6-piperidinopyrimidine-3-oxide, reference compound], for which the “Expression of Genes (%): Versican” value in the assay with Versican (2 μg/mL) was determined as 134%. The “Dermal Papilla Cell Proliferation Ability (%)” value in assay [1] (2 μg/mL) is 187.2%. Further, in the assay on VEGF (2 μg/mL), the “Expression of Genes (%): VEGF” value is recorded as 110%. For the same compound, the “Expression of Genes (%): DKK-1” value in the assay on DKK-1 (2 μg/mL) is listed as 128%.

For `COc1cc(OC2OC(CO)C(O)C(O)C2O)c2c(c1)C(=O)c1cc(C)cc(O)c1C2=O` (stereo not drawn) [Physicon-8-O-d-glucopyranoside], the “Expression of Genes (%): Versican” value in the assay on Versican (10 μg/mL) is 175%. For the same compound, the “expression of versican, result in words” value with Versican was “increase expression”. For the same compound, in assay [1] (10 μg/mL), the “Dermal Papilla Cell Proliferation Ability (%)” value is recorded as 148.3%. Further, the “proliferation of dermal papilla cells” value in assay [1] was “excellent effect of accelerating proliferation of dermal papilla cells”. The “Expression of Genes (%): VEGF” value in the assay with VEGF (10 μg/mL) is reported as 164%. The “expression of VEGF, result in words” value in the assay on VEGF was “increase expression of VEGF”. Besides, in the assay on DKK-1 (10 μg/mL), the “Expression of Genes (%): DKK-1” value was determined as 75%. Further, the “expression of DKK-1, result in words” value with DKK-1 is reported as “reduce expression of DKK-1”.

As for `COc1ccc(/C=C/c2cc(O)cc(O[C@@H]3O[C@H](CO)[C@@H](O)[C@H](O)[C@H]3O)c2)cc1O` [Rhaponticin], in the assay with Versican (10 μg/mL), the “Expression of Genes (%): Versican” value is given as 130%. Besides, in the assay with Versican, the “expression of versican, result in words” value is “increase expression”. In addition, the “Dermal Papilla Cell Proliferation Ability (%)” value in assay [1] (10 μg/mL) was determined as 162.7%. Also, the “proliferation of dermal papilla cells” value in assay [1] is “excellent effect of accelerating proliferation of dermal papilla cells”. For the same compound, the “Expression of Genes (%): VEGF” value in the assay on VEGF (10 μg/mL) is 210%. In the assay with VEGF, the “expression of VEGF, result in words” value is reported as “increase expression of VEGF”. In the assay with DKK-1 (10 μg/mL), the “Expression of Genes (%): DKK-1” value is listed as 112%. Also, the “expression of DKK-1, result in words” value in the assay on DKK-1 was “reduce expression of DKK-1”.

For `O=C(O)c1cc(O)c2c(c1)C(=O)c1cccc(O)c1C2=O` [Rhein], the “Expression of Genes (%): Versican” value in the assay with Versican (10 μg/mL) was 154%. For the same compound, the “expression of versican, result in words” value with Versican was “increase expression”. Moreover, the “Dermal Papilla Cell Proliferation Ability (%)” value in assay [1] (10 μg/mL) was 152.7%. Moreover, in assay [1], the “proliferation of dermal papilla cells” value was “excellent effect of accelerating proliferation of dermal papilla cells”. In addition, the “Expression of Genes (%): VEGF” value in the assay with VEGF (10 μg/mL) came out at 144%. Besides, in the assay with VEGF, the “expression of VEGF, result in words” value is recorded as “increase expression of VEGF”. Further, the “Expression of Genes (%): DKK-1” value with DKK-1 (10 μg/mL) is 76%. For the same compound, in the assay with DKK-1, the “expression of DKK-1, result in words” value was “reduce expression of DKK-1”.

On to Escin, for which the “Wnt/β-catenin signal effect compared to the positive control wnt3a protein” value in assay [2] was “higher effect as compared to the positive control”. Further, in assay [2] (no concentration dependence, clear effect at about 20 μg/mL), the “amplification of Wnt/β-catenin signals as compared to the non-treated negative control” value was “approximately 11 times”. In addition, the “amount of β-catenin in dermal papilla cells, result in words” value in the assay with β-catenin was “significant increase in amount of β-catenin”. Further, the “Dermal Papilla Cell Proliferation Ability (%)” value in assay [3] (0.2 μg/mL) came to 168.8%; in assay [3] (0.5 μg/mL) it was 198.7%; in assay [3] (1 μg/mL), 194.4%; in assay [3] (2 μg/mL) it was 204.8%; in assay [3] (5 μg/mL), 208.3%. In assay [3] (escin 0.2-5 μg/mL), the “DPC proliferation, result in words” value is “shows an effect of DPC proliferation”.
